Experimental data reported in patent US6562954B1, “Method for producing oligosaccharide, and novel oligosaccharide and pharmaceutical composition containing the same” (Seikagaku Corporation, priority 1999, dated 2003).

Legend:
[1] = tested on: guinea pig neutrophils; assay: Effect on O2− generation by guinea pig neutrophils induced by FMLP stimulation; assay type: cell-based; conditions: for relative inhibition rate to the control of O2− generation: 1 mg/ml, preincubation 37° C. 1 hour; for suppression of O2− generation by neutrophils (in words): 0.01 to 1 mg/ml
Description: A 0.2% aqueous solution of glycogen in physiological saline was autoclaved, and 20 ml of the solution was intraperitoneally administered to a Hartley female guinea pig. The animal was killed by exsanguination 16 hours later, 20 ml of physiological saline containing 10 U/ml of heparin was injected into the abdominal cavity, and the peritoneal exudate was collected. The exudate was centrifuged at 1000 rpm for 10 minutes on a desk-top centrifugal machine, and purified water was added to the precipitate to cause hemolysis for 30 seconds. The solution was made isotonic again with Hank's balanced salt solution at 2-fold concentration, and centrifuged at 1000 rpm for 10 minutes. A procedure of resuspension of the precipitates in the Hank's balanced salt solution and centrifugation was repeated twice to obtain neutrophils. The obtained guinea pig neutrophils were suspended in Hank's balanced salt solution, and the leukocyte number was counted by a blood cell counter (Sysmex K-2000). A suspension diluted with Hank's balanced salt solution to 2×10^6 cells/ml was used for the experiment as a cell suspension.
1 ml of the-cell suspension and 10 μl of a solution of test substance at a known concentration (in a control, keratan sulfate oligosaccharide was not added) were mixed, preincubated at 37° C. for 1 hour, and 50 μl of 1.6 mM cytochrome C solution and 100 μl of 0.1 mM FMLP solution were successively added thereto and mixed. The mixture was incubated at 37° C. for 10 minutes, and the reaction was stopped by cooling with ice. The reaction mixture was centrifuged at 3000 rpm for 5 minutes, and absorbance of the supernatant was measured at a wavelength of 550 nm. All of the aforementioned procedures except for the incubation were performed with ice cooling.

[2] = tested on: Guinea pigs; assay: Test for antigenicity in guinea pigs (active systemic anaphylaxis); assay type: in vivo; conditions: sensitized s.c., induced i.v.
Description: Guinea pigs were sensitized by 3 times of subcutaneous administration of K4 or G4L4 alone or an emulsion of K4 with an immunostimulant, Freund's complete adjuvant (FCA). K4 or G4L4 was intravenously administered to the animals 12 days after the final sensitization to induce active systemic anaphylaxis. As a positive control, a similar test was performed for ovalbumin (OVA).
The results of the above test were shown in Table 1 together with the doses of the test substances. […] From the above results, K4 and G4L4 are not considered to induce active systemic anaphylaxis in guinea pigs.

[3] = tested on: normal mice; assay type: in vivo; conditions: for body weight thereafter: all mice, 2,000 mg/kg i.v. once, after the next day up to 14 days; for body weight on the next day of the administration: male mice, 2,000 mg/kg i.v. once; for general condition immediately after the administration: mice, 2,000 mg/kg i.v. once; for death: mice, male and female groups, 2,000 mg/kg i.v. once, observed 14 days
Description: From the above results, the least fatal dose of K4 and G4L4 for single intravenous administration is considered to be 2,000 mg/kg or higher. Therefore, LD50 of K4 and G4L4 for single intravenous administration exceeds 2,000 mg/kg for both of male and female mice.

**Q.** Which results are given for `CC(=O)N[C@H]1[C@H](O[C@@H]2[C@@H](O)[C@H](O)O[C@H](COS(=O)(=O)[O-])[C@@H]2O)O[C@H](COS(=O)(=O)[O-])[C@@H](O)[C@@H]1O.[Na+].[Na+]` [Compound K4, O-(2-Acetamido-2-deoxy-6-O-sulfo-β-D-glucopyranosyl)-(1→3)-O-6-O-sulfo-β-D-galactopyranose Disodium Salt]?
**A.** relative inhibition rate to the control of O2− generation [1]: 44.7%; suppression of O2− generation by neutrophils (in words) [1]: markedly suppressed; anaphylatic reaction after induction [2]: No anaphylatic reaction was observed; body weight thereafter [3]: favorable body weight increase; body weight on the next day of the administration [3]: slight weight loss; general condition immediately after the administration [3]: paralytic gait was observed for every mouse; death [3]: No death was observed

**Q.** What does the source list for `CC(=O)N[C@@H]1[C@@H](O)[C@H](O[C@@H]2O[C@H](COS(=O)(=O)[O-])[C@H](O)[C@H](O[C@@H]3O[C@H](COS(=O)(=O)[O-])[C@@H](O)[C@H](O)[C@H]3NC(C)=O)[C@H]2O)[C@@H](COS(=O)(=O)[O-])O[C@H]1O.[Na+].[Na+].[Na+]` [Compound G4L4, O-(2-Acetamido-2-deoxy-6-O-sulfo-β-D-glucopyranosyl)-(1→3)-O-(6-O-sulfo-β-D-galactopyranosyl)-(1→4)-O-2-acetamido-2-deoxy-6-O-sulfo-β-D-glucopyranose Trisodium Salt]?
**A.** relative inhibition rate to the control of O2− generation [1]: 57.1%; suppression of O2− generation by neutrophils (in words) [1]: markedly suppressed; anaphylatic reaction after induction [2]: No anaphylatic reaction was observed; body weight thereafter [3]: favorable body weight increase; body weight on the next day of the administration [3]: slight weight loss; general condition immediately after the administration [3]: paralytic gait was observed for every mouse; death [3]: No death was observed

**Q.** `CC(=O)NC1C(O)OC(COS(=O)(=O)[O-])C(OC2OC(COS(=O)(=O)[O-])C(O)C(OC3OC(COS(=O)(=O)[O-])C(OC4OC(COS(=O)(=O)[O-])C(O)C(O)C4O)C(O)C3NC(C)=O)C2O)C1O.[Na+].[Na+].[Na+].[Na+]` (centres unmarked) [Compound L4L4, reference compound] was tested. Which “relative inhibition rate to the control of O2− generation” value [1] did it give?
**A.** 50.6%

**Q.** And the “suppression of O2− generation by neutrophils (in words)” value [1]?
**A.** markedly suppressed

B1: OVA: ovalbumin, positive control in the antigenicity test (protein, UniProt P01012 2-386, looked up)
Ovalbumin: GSIGAASMEFCFDVFKELKVHHANENIFYCPIAIMSALAMVYLGAKDSTRTQINKVVRFDKLPGFGDSIEAQCGTSVNVHSSLRDILNQITKPNDVYSFSLASRLYAEERYPILPEYLQCVKELYRGGLEPINFQTAADQARELINSWVESQTNGIIRNVLQPSSVDSQTAMVLVNAIVFKGLWEKAFKDEDTQAMPFRVTEQESKPVQMMYQIGLFRVASMASEKMKILELPFASGTMSMLVLLPDEVSGLEQLESIINFEKLTEWTSSNVMEERKIKVYLPRMKMEEKYNLTSVLMAMGITDVFSSSANLSGISSAESLKISQAVHAAHAEINEAGREVVGSAEAGVDAASVSEEFRADHPFLFCIKHIATNAVLFFGRCVSP
**Q.** Which “anaphylatic reaction after induction” value [2] does the source give for B1 here?
**A.** showed anaphylatic reaction
